Values after ≈ are worked out from the molar mass of the structure shown. Read-outs that look alike come from different tables or passages of the source. Each block holds one compound with its values, some of them ahead of it.
Assays:
Format in all cases: cell-based
Candida albicans = assay: MIC against Candida albicans; conditions: table prints none
Escherichia coli O157:H7 [1] = assay: MIC with/without PMBN, Escherichia coli O157:H7
Method: (§1) The MIC of the rhodanines and control antibiotics, in the presence of a sub-inhibitory concentration of colistin or polymixin B nonapeptide (PMBN), against Gram-negative bacteria was evaluated as described before. The antibacterial activity of the rhodanines was further investigated against E. coli SM1411Δ acrAB, a strain that is deficient in the multidrug-resistant AcrAB efflux pump, as described before.

Escherichia coli O157:H7 [2] = assay: MIC with/without sub-MIC colistin, Escherichia coli O157:H7
Method: as §1

Klebsiella pneumoniae [3] = assay: MIC with/without sub-MIC colistin, Klebsiella pneumoniae
Method: as §1

Escherichia coli Δ acrAB = assay: MIC against E. coli 1411 and AcrAB efflux pump deficient E. coli SM1411Δ acrAB
Method: as §1

Pseudomonas aeruginosa [4] = assay: MIC with/without sub-MIC colistin, Pseudomonas aeruginosa; conditions: Pseudomonas aeruginosa ATCC 921, read-out: MIC
Method: as §1

Acinetobacter baumannii [5] = assay: MIC with/without sub-MIC colistin, Acinetobacter baumannii; conditions: read-out: MIC
Method: as §1

Acinetobacter baumannii [6] = assay: MIC with/without PMBN, Acinetobacter baumannii; conditions: read-out: MIC
Method: as §1

Salmonella Typhimurium [7] = assay: MIC with/without sub-MIC colistin, Salmonella Typhimurium; conditions: Salmonella Typhimurium ATCC 700720, read-out: MIC
Method: as §1

Salmonella Typhimurium [8] = assay: MIC with/without PMBN, Salmonella Typhimurium; conditions: Salmonella Typhimurium ATCC 700720, read-out: MIC
Method: as §1

Klebsiella pneumoniae [9] = assay: MIC with/without PMBN, Klebsiella pneumoniae
Method: as §1

Pseudomonas aeruginosa [10] = assay: MIC with/without PMBN, Pseudomonas aeruginosa; conditions: Pseudomonas aeruginosa ATCC 9721, read-out: MIC
Method: as §1

Clostridium difficile = assay: MIC against Clostridium difficile, anaerobic broth dilution; conditions: Clostridioides difficile
Method: Clinical isolates of C. difficile were cultured on anaerobic blood agar and incubated anaerobically using container gas pack system at 37° C for 48 hours. The colonies were then suspended in pre-reduced phosphate buffered saline (PBS) and adjusted to 0.5 McFarland standard then diluted 1:300 in pre-reduced Supplemented Brain Heart Infusion broth. The bacterial suspension was then transferred to each well of 96-well plates, the drugs were added to the first row of wells in the required concentrations and serially diluted along the plates. The plates were incubated again anaerobically using container gas pack system at 37° C for 48 hours. The (MIC) recorded was the lowest concentration of the drug showing no visible growth of the bacteria.

[11] = ATCC10231, C. albicans ATCC 10231, unit from abstract, read-out: MIC
[12] = ATCC10231, C. albicans ATCC 10231, unit from abstract, read-out: MIC (second value after the slash)
[13] = C. albicans NR 29434, unit from abstract, read-out: MIC
[14] = C. albicans NR 29434, unit from abstract, read-out: MIC (second value after the slash)
[15] = C. albicans NR 29435, unit from abstract, read-out: MIC
[16] = C. albicans NR 29435, unit from abstract, read-out: MIC (second value after the slash)
[17] = C. albicans NR29437, unit from abstract, read-out: MIC
[18] = C. albicans NR29438, unit from abstract, read-out: MIC
[19] = C. albicans NR29438, unit from abstract, read-out: MIC (second value after the slash)
[20] = C. albicans NR 29446, unit from abstract, read-out: MIC
[21] = C. albicans NR 29448, unit from abstract, read-out: MIC
[22] = C. albicans NR 29449, unit from abstract, read-out: MIC
[23] = C. albicans NR 29449, unit from abstract, read-out: MIC (second value after the slash)
[24] = C. albicans NR 29453, unit from abstract, read-out: MIC
[25] = C. albicans NR 29453, unit from abstract, read-out: MIC (second value after the slash)
[26] = C. albicans NR 294436, unit from abstract, read-out: MIC
[27] = C. albicans NR 294436, unit from abstract, read-out: MIC (second value after the slash)

MIC (Candida albicans; [11]): 1 µM (≈ 0.924 µg/mL) | MIC (Candida albicans; [12]): 1 µM (≈ 0.924 µg/mL) | MIC (Candida albicans; [13]): 2 µM (≈ 1.85 µg/mL) | MIC (Candida albicans; [14]): 2 µM (≈ 1.85 µg/mL) | MIC (Candida albicans; [15]): 1 µM (≈ 0.924 µg/mL) | MIC (Candida albicans; [16]): 2 µM (≈ 1.85 µg/mL) | MIC (Candida albicans; [17]): 2 µM (≈ 1.85 µg/mL) | MIC (Candida albicans; [18]): 1 µM (≈ 0.924 µg/mL) | MIC (Candida albicans; [19]): 4 µM (≈ 3.7 µg/mL) | MIC (Candida albicans; [20]): 1 µM (≈ 0.924 µg/mL) | MIC (Candida albicans; C. albicans NR 29446, unit from abstract, read-out: MIC (second value after the slash)): 1 µM (≈ 0.924 µg/mL) | MIC (Candida albicans; [21]): 2 µM (≈ 1.85 µg/mL) | MIC (Candida albicans; C. albicans NR 29448, unit from abstract, read-out: MIC (second value after the slash)): 2 µM (≈ 1.85 µg/mL) | MIC (Candida albicans; [22]): 1 µM (≈ 0.924 µg/mL) | MIC (Candida albicans; [23]): 2 µM (≈ 1.85 µg/mL) | MIC (Candida albicans; [24]): 1 µM (≈ 0.924 µg/mL) | MIC (Candida albicans; [25]): 2 µM (≈ 1.85 µg/mL) | MIC (Candida albicans; [26]): 2 µM (≈ 1.85 µg/mL) | MIC (Candida albicans; [27]): 2 µM (≈ 1.85 µg/mL)
Structure (SMILES): C[C@@H]1[C@H](O)[C@@H](C)/C=C/C=C/C=C/C=C/C=C/C=C/C=C/[C@H](O[C@@H]2O[C@H](C)[C@@H](O)[C@H](N)[C@@H]2O)C[C@@H]2O[C@](O)(C[C@@H](O)C[C@@H](O)[C@H](O)CC[C@@H](O)C[C@@H](O)CC(=O)O[C@H]1C)C[C@H](O)[C@H]2C(=O)O [Amphotericin B, amphotericin B, reference compound]

Structure (SMILES): CC[C@H]1OC(=O)[C@H](C)[C@@H](O[C@H]2C[C@@](C)(OC)[C@@H](O)[C@H](C)O2)[C@H](C)[C@@H](O[C@@H]2O[C@H](C)C[C@H](N(C)C)[C@H]2O)[C@](C)(O)C[C@@H](C)C(=O)[C@H](C)[C@@H](O)[C@]1(C)O [Erythromycin, erythromycin, reference compound]
MIC (Escherichia coli O157:H7 [1]; Escherichia coli O157:H7 ATCC 35150, PMBN (+) 4 μg/mL, read-out: MIC): 4 µM (≈ 2.94 µg/mL) | MIC (Escherichia coli O157:H7 [1]; Escherichia coli O157:H7 ATCC 700728, PMBN (+) 4 μg/mL, read-out: MIC): 2 µM (≈ 1.47 µg/mL) | MIC (Escherichia coli O157:H7 [1]; Escherichia coli, ATCC35150): 128 µM (≈ 93.9 µg/mL) | MIC (Escherichia coli O157:H7 [1]; Escherichia coli, ATCC700728): 32 µM (≈ 23.5 µg/mL) | MIC (Escherichia coli O157:H7 [2]; Escherichia coli O157:H7 ATCC 35150, colistin (+) […], read-out: MIC): ≤0.5 µM | MIC (Escherichia coli O157:H7 [2]; Escherichia coli O157:H7 ATCC 700728, colistin (+) […], read-out: MIC): ≤0.5 µM | MIC (Escherichia coli O157:H7 [2]; Escherichia coli, ATCC35150): 32 µM (≈ 23.5 µg/mL) | MIC (Escherichia coli O157:H7 [2]; Escherichia coli, ATCC700728): 32 µM (≈ 23.5 µg/mL) | MIC (Klebsiella pneumoniae [3]; Klebsiella pneumoniae ATCC BAA 2146, colistin (+) […]): >64 µM | MIC (Klebsiella pneumoniae [3]; Klebsiella pneumoniae, BAA2146): > 128 µM | MIC (Escherichia coli Δ acrAB; E.coli 1411): > 64 µM | MIC (Escherichia coli Δ acrAB; E.coli 1411 SM (Δ acrAB, AcrAB efflux pump deficient)): 2 µM (≈ 1.47 µg/mL) | MIC (Pseudomonas aeruginosa [4]; ATCC921, colistin (-)): 64 µM (≈ 47 µg/mL) | MIC (Pseudomonas aeruginosa [4]; colistin (+) […]): 16 µM (≈ 11.7 µg/mL) | MIC (Acinetobacter baumannii [5]; ATCCBAA747, Acinetobacter baumannii ATCC BAA747, colistin (-)): 4 µM (≈ 2.94 µg/mL) | MIC (Acinetobacter baumannii [5]; ATCCBAA19606, Acinetobacter baumannii ATCC BAA19606, colistin (-)): 16 µM (≈ 11.7 µg/mL) | MIC (Acinetobacter baumannii [5]; Acinetobacter baumannii ATCC BAA747, colistin (+) […]): 1 µM (≈ 0.734 µg/mL) | MIC (Acinetobacter baumannii [5]; Acinetobacter baumannii ATCC BAA19606, colistin (+) […]): 2 µM (≈ 1.47 µg/mL) | MIC (Acinetobacter baumannii [6]; ATCCBAA747, Acinetobacter baumannii ATCC BAA747, PMBN (-)): 4 µM (≈ 2.94 µg/mL) | MIC (Acinetobacter baumannii [6]; ATCCBAA19606, Acinetobacter baumannii ATCC BAA19606, PMBN (-)): 16 µM (≈ 11.7 µg/mL) | MIC (Acinetobacter baumannii [6]; Acinetobacter baumannii ATCC BAA747, PMBN (+) 4 μg/mL): ≤0.5 µM | MIC (Acinetobacter baumannii [6]; Acinetobacter baumannii ATCC BAA19606, PMBN (+) 4 μg/mL): 2 µM (≈ 1.47 µg/mL) | MIC (Salmonella Typhimurium [7]; colistin (+) […]): 16 µM (≈ 11.7 µg/mL) | MIC (Salmonella Typhimurium [7]; Salmonella enterica, ATCC 700720 / TYPHIMURIUM, colistin (-)): 64 µM (≈ 47 µg/mL) | MIC (Salmonella Typhimurium [8]; PMBN (+) 4 μg/mL): 4 µM (≈ 2.94 µg/mL) | MIC (Salmonella Typhimurium [8]; Salmonella enterica, ATCC 700720 / TYPHIMURIUM, PMBN (-)): 64 µM (≈ 47 µg/mL) | MIC (Klebsiella pneumoniae [9]; Klebsiella pneumoniae ATCC BAA 1706, PMBN (+) 4 μg/mL): 64 µM (≈ 47 µg/mL) | MIC (Klebsiella pneumoniae [9]; Klebsiella pneumoniae ATCC BAA 2146, PMBN (+) 4 μg/mL): >64 µM | MIC (Klebsiella pneumoniae [9]; Klebsiella pneumoniae, BAA1706): > 128 µM | MIC (Klebsiella pneumoniae [9]; Klebsiella pneumoniae, BAA2146): > 128 µM | MIC (Pseudomonas aeruginosa [10]; ATCC9721, PMBN (-)): 64 µM (≈ 47 µg/mL) | MIC (Pseudomonas aeruginosa [10]; PMBN (+) 4 μg/mL): 1 µM (≈ 0.734 µg/mL)

MIC (Candida albicans; [11]): < 0.5 µM | MIC (Candida albicans; [12]): 1 µM (≈ 0.306 µg/mL) | MIC (Candida albicans; [13]): < 0.5 µM | MIC (Candida albicans; [14]): 1 µM (≈ 0.306 µg/mL) | MIC (Candida albicans; [15]): < 0.5 µM | MIC (Candida albicans; [16]): > 64 µM | MIC (Candida albicans; [17]): 1 µM (≈ 0.306 µg/mL) | MIC (Candida albicans; [18]): < 0.5 µM | MIC (Candida albicans; [19]): > 64 µM | MIC (Candida albicans; [20]): > 64 µM | MIC (Candida albicans; [21]): > 64 µM | MIC (Candida albicans; [22]): < 0.5 µM | MIC (Candida albicans; [23]): > 64 µM | MIC (Candida albicans; [24]): < 0.5 µM | MIC (Candida albicans; [25]): < 0.5 µM | MIC (Candida albicans; [26]): < 0.5 µM | MIC (Candida albicans; [27]): > 64 µM
Structure (SMILES): OC(Cn1cncn1)(Cn1cncn1)c1ccc(F)cc1F [Fluconazole, fluconazole, reference compound]

Structure (SMILES): Cc1ncc([N+](=O)[O-])n1CCO [Metronidazole, reference compound]
MIC (Clostridium difficile; C. difficile HM-88): 0.25 µM (≈ 0.0428 µg/mL) | MIC (Clostridium difficile; C. difficile HM-745): 0.5 µM (≈ 0.0856 µg/mL) | MIC (Clostridium difficile; C. difficile HM-746): 0.125 µM (≈ 0.0214 µg/mL) | MIC (Clostridium difficile; C. difficile Isolate-1 NR-13427): 0.25 µM (≈ 0.0428 µg/mL) | MIC (Clostridium difficile; C. difficile Toxigenic Strain P8 NR-32888): 1 µM (≈ 0.171 µg/mL)
